Data reported in PubChem BioAssay AID2060509 (Molecular Pharmacology Branch, DTP, NCI, 2025).
Values joined by “and” are separate entries in the source; they are usually repeats but may differ in a detail not shown here. Identical values can stand only once.

Test system: 485176-168-R4-J1-PDC spheroids with HUVEC/MSC, viability
Assay: Anticancer human tumor 485176-168-R4-J1-PDC patient-derived pancreatic adenocarcinoma cell line growth inhibition [GQUAD]
Conditions: for viability, T/C: stronger effect = lower value
Text: DNA G-quadruplex Stabilizer Agents in Combinations in Complex Spheroids
A high-throughput screen of multi-cell type tumor spheroids was designed to identify active combinations of DNA G-quadruplex stabilizer agents and targeted small molecules. Complex spheroids include a stromal component modeled by human endothelial cells (HUVEC) and fibroblasts modeled by human mesenchymal stem cells (MSCs). The concentration ranges selected for each drug and investigational agent were based upon clinically achievable concentrations if the clinical Cmax of the agent was known.
Compounds. The drugs and investigational agents: pidnarulex (CX-5461; NSC782164), APTO-253 (NSC789042), BRACO-19 (NSC847499), peposertib (NSC802822), ceralasertib (NSC780249), elimusertib (NSC800525), camonsertib (NSC841442), AZD-1390 (NSC803789), olaparib (NSC753686), talazoparib (NSC767125), ART-558 (NSC835418), sotorasib (NSC818433), MRTX-1133 (NSC836407), SN-38 (NSC673596), topotecan (NSC609699), etoposide (NSC141540), doxorubicin (NSC123127), gemcitabine (NSC613327), 5-fluorouracil (NSC19893), paclitaxel (NSC125973), vemurafenib (NSC761431), panobinostat (NSC761190), R-306465 (JNJ-16241199; NSC773264), adavosertib (NSC754352), TP-3654 (NSC805149), carboplatin (NSC241240), KSQ-4279 (NSC840948), and staurosporine (NSC755774) were obtained from the National Cancer Institute (NCI) Developmental Therapeutics Program Chemical Repository (34). The FDA-approved anticancer drug set is available from the NCI Developmental Therapeutics Program. […] The stock solutions were prepared in dimethyl sulfoxide (DMSO, Sigma-Aldrich, St. Louis, MO, cat. D2650) at 800-fold the tested concentration and stored at -70 degrees C prior to their use. All drugs and investigational agents were tested over a range starting from a high concentration at or near the clinical Cmax and decreasing in half-log increments. If the clinical Cmax for an agent had not been determined, the highest concentration tested was 10 microM.
2.3 Cell Culture. All cells were maintained in an incubator at 37 degrees C and 5% CO2 with 95% humidity. The PDC lines were cultured according to standard operating procedures established by the NCI PDMR. All PDCs were thawed and cultured in Matrigel-coated flasks prepared with a working solution of 1X Ham's F-12 nutrient mix, without supplementation (Invitrogen, cat. 11765054), 100 U/mL penicillin-streptomycin (Invitrogen, cat. 15140122), and 2.5% Matrigel (Corning Inc., cat. 354248) for the first three passages. The 857933-349-R-J2-PDC line was cultured in 6C/Colon 1B media, which includes advanced DMEM/F-12 (Thermo Fisher Scientific, cat. 12634028), 10 mM HEPES (Thermo Fisher Scientific, cat. 15630080), 1X GlutaMAX supplement (Thermo Fisher Scientific, cat. 35050061), 0.1 mg/mL primocin (InvivoGen, cat. ant-pm-2), 10% defined fetal bovine serum, heat inactivated (HyClone Laboratories Inc., cat. SH30070.03HI), 50% L-WRN conditioned media (ATCC, cat. CRL-3276), 1.25 mM N-Acetyl-L-cysteine (Sigma-Aldrich, cat. A9165), 10 mM nicotinamide (Sigma-Aldrich, cat. N0636), 1X B-27 supplement (Thermo Fisher Scientific, cat. 17504044), 1X N-2 supplement (Thermo Fisher Scientific, cat. 17502048), 10 microM Y-27632 dihydrochloride (Tocris Bioscience, cat. 1254), and 50 ng/mL human EGF recombinant protein (Thermo Fisher Scientific, cat. PHG0311). The 485176-168-R4-J1-PDC line was cultured in Panc media, which includes all 6C/Colon 1B media components plus 100 ng/mL human FGF-10 (Thermo Fisher Scientific, cat. 100-26), 500 nM SB-431542 (Selleckchem, cat. S1067), and gastrin (Tocris, cat. 3006).
[…]
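Also: spheroids exposed to compounds for seven days before readout.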
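For viability, T/C in this document: percent viability relative to DMSO vehicle control wells as 100%.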

SMILES | viability, T/C (compound 0.0316 µM) | viability, T/C (compound 0.1 µM) | viability, T/C (compound 0.316 µM) | viability, T/C (compound 1 µM) | viability, T/C (compound 3.16 µM) | viability, T/C (compound 10 µM) | IC50 (compound alone, run of 03/18/2024) | IC50 (curve of compound) | viability, T/C (compound 0.000999 µM) | viability, T/C (compound 0.00316 µM) | viability, T/C (compound 0.00999 µM) | viability, T/C (compound 0.0999 µM)
Cc1cnc(CNC(=O)c2c(=O)c3ccc(N4CCCN(C)CC4)nc3n3c2sc2ccccc23)cn1 | 90.3% [middle of 12 runs] | 78.8% [middle of 12 runs] | 64.4% [middle of 12 runs] | 55% [middle of 12 runs] | 39.6% [middle of 12 runs] | 36.6% [middle of 12 runs] | 1.17 µM [middle of 10 runs] |  |  |  |  | 
O=C(NO)c1cnc(N2CCN(S(=O)(=O)c3ccc4ccccc4c3)CC2)nc1 | 83.4% and 107% and 97.9% | 99.5% and 73.2% and 76.1% | 67.6% and 78.2% and 61.2% | 7.2% and 12.1% and 11% | 0.3% and 0.31% and 0.2% | 0.3% and 0.31% and 0.29% |  | 443 nM and 512 nM and 378 nM |  |  |  | 
O=c1[nH]cc(F)c(=O)[nH]1 | 95.9% and 97.3% and 84.9% | 85.5% and 91% and 89.7% | 79.7% and 75.4% and 64% | 56.6% and 60.5% and 59.2% | 48.2% and 46.2% and 45.4% | 46.8% and 46.7% and 54.9% |  | 2610 nM and 2750 nM and > 10000 nM |  |  |  | 
CCc1c2c(nc3ccc(O)cc13)-c1cc3c(c(=O)n1C2)COC(=O)[C@]3(O)CC | 25.5% and 22.1% and 19.9% |  | 5.64% and 4.31% and 3.94% |  |  |  |  | 3.08 nM and 6.61 nM and 4.61 nM | 70.1% and 80.1% and 81.3% | 44.8% and 56.4% and 56% | 36% and 50.5% and 37.6% | 14.2% and 11.4% and 13.2%
